Measurements taken from ChEMBL document CHEMBL5726139, “Heterocyclic compounds and methods of their use” (2017).

Biological target: T1, Type-2 angiotensin II receptor (Homo sapiens, UniProt P50052)
T1 sequence (P50052 whole entry): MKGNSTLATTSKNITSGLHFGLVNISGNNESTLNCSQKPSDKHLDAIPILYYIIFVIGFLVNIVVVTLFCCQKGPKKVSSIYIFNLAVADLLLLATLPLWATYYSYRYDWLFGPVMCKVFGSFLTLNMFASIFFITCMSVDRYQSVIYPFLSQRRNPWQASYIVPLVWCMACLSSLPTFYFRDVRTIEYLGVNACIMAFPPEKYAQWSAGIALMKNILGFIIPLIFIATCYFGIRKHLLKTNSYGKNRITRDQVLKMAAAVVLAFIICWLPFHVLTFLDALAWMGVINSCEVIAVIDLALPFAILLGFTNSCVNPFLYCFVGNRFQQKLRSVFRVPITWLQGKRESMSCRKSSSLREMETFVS
Assay: Receptor Binding Assay: 120 μL membrane ([…]) was incubated with 15 μL of [125I]-CGP42112A and 15 μL of compound at RT for 1.5 hrs. The binding reaction was stopped by rapid filtration through Unifilter GF/C plates (presoaked in 0.3% (v:v) BSA). Plate was washed three times with ice cold wash buffer. The filtration plates were dried at 37° C. overnight. 50 μL of scintillation cocktail was added to each well. Radioactivity was determined using MicroBetaTriluxmicroplate scintillation counter.

| SMILES | IC50 |
| --- | --- |
| O=C(C(c1ccccc1)c1ccccc1)N1C[C@@H](OCCCc2ccccc2)[C@H]1CO | 650 nM |
| O=C(O)[C@@H]1C[C@H](NC(=O)N(c2ccccc2)c2ccccc2)CN1C(=O)C(c1ccccc1)c1ccccc1 | 3360 nM |
| O=C(C(c1ccccc1)c1ccccc1)N1C[C@H](OCCCc2ccccc2)[C@H]1CO | 2050 nM |
| CN(CCCc1ccc(F)cc1)[C@H]1C[C@@H](c2nnn[nH]2)N(C(=O)C(c2ccccc2)c2ccccc2)C1 | 3.52 nM |

The next lines start with the values.

| IC50 | SMILES |
| --- | --- |
| 240 nM | CC(=O)N(CCCc1ccccc1)[C@H]1C[C@@H](C(=O)O)N(C(=O)C(c2ccccc2)c2ccccc2)C1 |
| 384 nM | CN(CCc1ccccc1)[C@H]1C[C@@H](C(=O)O)N(C(=O)C(c2ccccc2)c2ccccc2)C1 |
